For this assay, the target named is T1, PI3Kδ (Homo sapiens, UniProt O00329).
T1 construct: endogenous in cells; host or cells: Raji cells
T1 sequence (O00329 whole entry): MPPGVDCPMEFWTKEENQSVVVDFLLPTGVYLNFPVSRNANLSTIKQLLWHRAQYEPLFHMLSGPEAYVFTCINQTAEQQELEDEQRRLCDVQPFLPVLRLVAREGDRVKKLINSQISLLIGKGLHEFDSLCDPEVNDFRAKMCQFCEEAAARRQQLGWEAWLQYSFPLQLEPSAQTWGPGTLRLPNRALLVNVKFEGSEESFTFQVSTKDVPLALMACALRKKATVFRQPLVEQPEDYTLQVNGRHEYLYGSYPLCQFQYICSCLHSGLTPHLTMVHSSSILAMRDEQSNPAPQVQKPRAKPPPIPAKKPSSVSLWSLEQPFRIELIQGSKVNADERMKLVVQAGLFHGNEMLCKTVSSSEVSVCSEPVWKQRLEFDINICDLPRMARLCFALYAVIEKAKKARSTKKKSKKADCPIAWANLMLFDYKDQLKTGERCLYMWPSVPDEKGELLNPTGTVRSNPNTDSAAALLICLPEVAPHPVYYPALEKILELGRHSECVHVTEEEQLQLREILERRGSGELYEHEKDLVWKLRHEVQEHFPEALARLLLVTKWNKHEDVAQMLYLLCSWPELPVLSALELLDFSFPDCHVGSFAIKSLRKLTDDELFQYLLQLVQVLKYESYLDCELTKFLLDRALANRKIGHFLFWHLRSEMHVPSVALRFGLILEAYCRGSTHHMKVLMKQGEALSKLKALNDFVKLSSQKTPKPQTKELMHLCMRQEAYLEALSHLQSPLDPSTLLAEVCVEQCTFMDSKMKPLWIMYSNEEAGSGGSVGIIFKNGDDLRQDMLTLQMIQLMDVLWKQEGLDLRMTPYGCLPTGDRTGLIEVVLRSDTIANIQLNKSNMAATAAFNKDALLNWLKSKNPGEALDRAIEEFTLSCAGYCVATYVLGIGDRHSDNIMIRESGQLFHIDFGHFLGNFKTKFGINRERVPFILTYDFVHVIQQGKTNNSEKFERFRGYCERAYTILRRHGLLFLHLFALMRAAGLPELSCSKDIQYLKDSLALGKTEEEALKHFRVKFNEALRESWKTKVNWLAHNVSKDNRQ
T1 sequence (P27986 whole entry partner): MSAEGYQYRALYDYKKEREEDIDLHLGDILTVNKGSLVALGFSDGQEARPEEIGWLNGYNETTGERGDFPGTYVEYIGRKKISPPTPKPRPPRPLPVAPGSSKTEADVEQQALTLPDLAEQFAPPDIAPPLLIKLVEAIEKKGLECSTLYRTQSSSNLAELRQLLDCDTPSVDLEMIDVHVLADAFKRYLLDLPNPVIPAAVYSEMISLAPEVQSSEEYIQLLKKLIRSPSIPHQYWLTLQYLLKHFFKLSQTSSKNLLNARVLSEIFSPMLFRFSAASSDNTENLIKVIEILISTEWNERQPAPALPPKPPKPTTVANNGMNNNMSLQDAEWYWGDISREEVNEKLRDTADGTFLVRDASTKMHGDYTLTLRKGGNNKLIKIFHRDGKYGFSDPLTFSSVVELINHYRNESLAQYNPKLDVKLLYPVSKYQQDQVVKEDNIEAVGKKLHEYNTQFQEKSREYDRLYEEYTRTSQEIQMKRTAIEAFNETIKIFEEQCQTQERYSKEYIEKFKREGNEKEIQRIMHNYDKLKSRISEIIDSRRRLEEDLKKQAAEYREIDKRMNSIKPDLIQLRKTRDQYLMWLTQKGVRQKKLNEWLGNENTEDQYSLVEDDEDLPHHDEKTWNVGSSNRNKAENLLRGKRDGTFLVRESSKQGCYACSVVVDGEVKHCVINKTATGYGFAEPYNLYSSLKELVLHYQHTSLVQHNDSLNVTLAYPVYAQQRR
Nature of the assay: Cell Based Assay for PI3Kδ (AKT phosphorylation, AlphaScreen SureFire, anti-IgM stimulated Raji cells). As to conditions: compounds 1 h, anti-IgM (3 μg/mL) 30 min, phosphorylation of AKT, read-out: PI3Kδ inhibition IC50. The procedure: [formula] C) Cell Based Assay for PI3Kδ
Raji cells were maintained in RPMI-1640 (Sigma) supplemented with 10% fetal bovine serum (heat inactivated) (FBS, Sigma), 100 U penicillin/mL, and […] streptomycin and incubated at 37° C. and 5% CO2. Cells were centrifuged and resuspended in a complete medium. The required numbers of cells were transferred to a tissue culture flask containing medium without serum for 1 h at 37° C., 5% CO2. Following 1 h serum starvation, cells were centrifuged and resuspended in Hank's Balanced Salt Solution (HBSS, Sigma) and seeded in at a density of 1 million cells/well in 96-well clear bottom plates. The cells were treated with test compounds for 1 h at 37° C., 5% CO2. Cells were then stimulated with anti-IgM (3 μg/mL) for 30 min. After Stimulation, cells were lysed with 15 μL of 5× lysis buffer and the plate was shaken on an orbital plate shaker at approximately 300 rpm for 10 min. AlphaScreen® SureFire® Cell-based Assay (Perkin-Elmer, Waltham, Mass., USA) was performed to measure phosphorylation of AKT, in the cells according to the manufacturer's instructions. The luminescence was measured using an alpha technology-compatible plate reader BMG Labtech, Germany) at 520-620 nm. Percentage inhibition was calculated according to formula: […]
IC50 values were calculated by plotting % inhibition against the respective concentrations of test compounds using GraphPad Prism 5.
Background: Alpha assays give light when donor and acceptor beads are brought close together.
One may read the IC50 as the concentration that inhibits the measured activity by half. For the compound `Cc1cccc2cc([C@H](C)Nc3ncnc(N)c3C#N)c(-c3ccc(F)c(F)c3)c(=O)n12` (single isomer, unassigned) [Compound 19a, 4-Amino-6-((1-(3-(3,4-difluorophenyl)-6-methyl-4-oxo-4H-quinolizin-2-yl)ethyl)amino)pyrimidine-5-carbonitrile], the IC50 fell in the range of 11 to 50 nM. For `C[C@H](Nc1nc(N)ncc1C#N)c1cc2ccc(F)cn2c(=O)c1-c1cccc(F)c1` (single isomer, unassigned) [Compound 20a, 2-Amino-4-((1-(7-fluoro-3-(3-fluorophenyl)-4-oxo-4H-quinolizin-2-yl)ethyl)amino)pyrimidine-5-carbonitrile] the value was 11 to 50 nM; for `Cc1nc(N)nc(N[C@@H](C)c2cc3ccc(F)cn3c(=O)c2-c2cccc(F)c2)c1C#N` (single isomer, unassigned) [Compound 21a, 2-Amino-4-((1-(7-fluoro-3-(3-fluorophenyl)-4-oxo-4H-quinolizin-2-yl)ethyl)amino)-6-methylpyrimidine-5-carbonitrile], 0.1 to 10 nM; for `Cc1c(F)ccc2cc([C@H](C)Nc3ncnc(N)c3C#N)c(-c3cccc(F)c3)c(=O)n12` (single isomer, unassigned) [Compound 23a, 4-Amino-6-((1-(7-fluoro-3-(3-fluorophenyl)-6-methyl-4-oxo-4H-quinolizin-2-yl)ethyl)amino)pyrimidine-5-carbonitrile], 0.1 to 10 nM. Regarding `Cc1c(F)ccc2cc([C@H](C)Nc3ncnc4[nH]cnc34)c(-c3ccccc3)c(=O)n12` (single isomer, unassigned) [Compound 24a, 2-(1-((9H-purin-6-yl)amino)ethyl)-7-fluoro-6-methyl-3-phenyl-4H-quinolizin-4-one], the IC50 fell in the range of 0.1 to 10 nM.

Regarding `CC[C@H](Nc1ncnc(N)c1C#N)c1cc2ccc(F)cn2c(=O)c1-c1ccccc1` (single isomer, unassigned) [Compound 41a, 4-Amino-6-((1-(7-fluoro-4-oxo-3-phenyl-4H-quinolizin-2-yl)propyl)amino)pyrimidine-5-carbonitrile], the IC50 was 11 to 50 nM. On to `CC[C@H](Nc1nc(N)nc(N)c1C#N)c1cc2ccc(F)cn2c(=O)c1-c1ccccc1` (single isomer, unassigned) [Compound 42a, 2,4-diamino-6-((1-(7-fluoro-4-oxo-3-phenyl-4H-quinolizin-2-yl)propyl)amino)pyrimidine-5-carbonitrile], for which the IC50 fell in the range of 0.1 to 10 nM.

As to `CC[C@H](Nc1ncnc(N)c1C#N)c1cc2ccc(F)cn2c(=O)c1-c1cccc(F)c1` (single isomer, unassigned) [Compound 44a, 4-Amino-6-((1-(7-fluoro-3-(3-fluorophenyl)-4-oxo-4H-quinolizin-2-yl)propyl)amino)pyrimidine-5-carbonitrile], the IC50 lay within 11 to 50 nM.

Take `CC[C@H](Nc1nc(N)nc(N)c1C#N)c1cc2ccc(F)cn2c(=O)c1-c1cccc(F)c1` (single isomer, unassigned) [Compound 45a, 2,4-diamino-6-((1-(7-fluoro-3-(3-fluorophenyl)-4-oxo-4H-quinolizin-2-yl)propyl)amino)pyrimidine-5-carbonitrile]: the IC50 lay in the range of 0.1 to 10 nM. Turning to `CC[C@H](Nc1nc(N)nc2[nH]cnc12)c1cc2ccc(F)cn2c(=O)c1-c1cccc(F)c1` (single isomer, unassigned) [Compound 47b, 2-(1-((2-amino-9H-purin-6-yl)amino)propyl)-7-fluoro-3-(3-fluorophenyl)-4H-quinolizin-4-one], the IC50 lay within 11 to 50 nM. On to `C[C@@H](c1cc2ccc(F)cn2c(=O)c1-c1ccccc1)n1nc(-c2cc(F)cc(NS(C)(=O)=O)c2)c2c(N)ncnc21` (single isomer, unassigned) [Compound 58a, N-(3-(4-amino-1-(1-(7-fluoro-4-oxo-3-phenyl-4H-quinolizin-2-yl)ethyl)-1H-pyrazolo[3,4-d]pyrimidin-3-yl)-5-fluorophenyl)methanesulfonamide], for which the IC50 was 11 to 50 nM.

Turning to `COc1ccc(-c2nn([C@@H](C)c3cc4ccc(F)cn4c(=O)c3-c3ccccc3)c3ncnc(N)c23)cn1` (single isomer, unassigned) [Compound 64a, 2-(1-(4-amino-3-(6-methoxypyridin-3-yl)-1H-pyrazolo[3,4-d]pyrimidin-1-yl)ethyl)-7-fluoro-3-phenyl-4H-quinolizin-4-one], the IC50 was in the range of 11 to 50 nM. For `COc1ncc(-c2nn([C@@H](C)c3cc4ccc(F)cn4c(=O)c3-c3ccccc3)c3ncnc(N)c23)cc1NS(C)(=O)=O` (single isomer, unassigned) [Compound 67a, N-(5-(4-amino-1-(1-(7-fluoro-4-oxo-3-phenyl-4H-quinolizin-2-yl)ethyl)-1H-pyrazolo[3,4-d]pyrimidin-3-yl)-2-methoxypyridin-3-yl)methanesulfonamide] the value was 0.1 to 10 nM. Turning to `C[C@H](Nc1ncnc2[nH]cc(C#N)c12)c1cc2ccc(F)cn2c(=O)c1-c1ccccc1` [Compound 28, (S)-4-((1-(7-fluoro-4-oxo-3-phenyl-4H-quinolizin-2-yl)ethyl)amino)-7H-pyrrolo[2,3-d]pyrimidine-5-carbonitrile], the IC50 fell in the range of 0.1 to 10 nM. As for `Cc1cc(F)cc(-c2c([C@H](C)Nc3ncnc(N)c3C#N)cc3ccc(F)cn3c2=O)c1` [Compound 29, (S)-4-amino-6-((1-(7-fluoro-3-(3-fluoro-5-methylphenyl)-4-oxo-4H-quinolizin-2-yl)ethyl)amino)pyrimidine-5-carbonitrile], the IC50 was in the range of 11 to 50 nM. For `Cc1cccc(-c2c([C@H](C)Nc3ncnc(N)c3C#N)cc3ccc(F)cn3c2=O)c1` [Compound 31, (S)-4-amino-6-((1-(7-fluoro-4-oxo-3-(m-tolyl)-4H-quinolizin-2-yl)ethyl)amino)pyrimidine-5-carbonitrile] the value was 11 to 50 nM. Take `C[C@H](Nc1nc(N)nc2[nH]cnc12)c1cc2ccc(F)cn2c(=O)c1-c1ccccc1` [Compound 33, (S)-2-(1-((2-amino-9H-purin-6-yl)amino)ethyl)-7-fluoro-3-phenyl-4H-quinolizin-4-one]: the IC50 lay within 0.1 to 10 nM.

For `C[C@H](Nc1ncnc(N)c1C#N)c1cc2ccc(F)cn2c(=O)c1-c1cccc(OC(F)(F)F)c1` [Compound 34, (S)-4-amino-6-((1-(7-fluoro-4-oxo-3-(3-(trifluoromethoxy)phenyl)-4H-quinolizin-2-yl)ethyl)amino)pyrimidine-5-carbonitrile], the IC50 fell in the range of 11 to 50 nM. In the case of `C[C@H](Nc1ncnc(N)c1C#N)c1cc2ccc(F)cn2c(=O)c1-c1ccc(F)cc1` [Compound 36, (S)-4-amino-6-((1-(7-fluoro-3-(4-fluorophenyl)-4-oxo-4H-quinolizin-2-yl)ethyl)amino)pyrimidine-5-carbonitrile], the IC50 is 11 to 50 nM. With `C[C@H](Nc1ncnc2[nH]cc(F)c12)c1cc2ccc(F)cn2c(=O)c1-c1ccccc1` [Compound 40, (S)-7-fluoro-2-(1-((5-fluoro-7H-pyrrolo[2,3-d]pyrimidin-4-yl)amino)ethyl)-3-phenyl-4H-quinolizin-4-one], the IC50 was in the range of 0.1 to 10 nM.

`C[C@H](Nc1ncnc(N)c1C#N)c1cc2ccc(F)cn2c(=O)c1-c1cc(F)cc(F)c1` [Compound 48, (S)-4-amino-6-((1-(3-(3,5-difluorophenyl)-7-fluoro-4-oxo-4H-quinolizin-2-yl)ethyl)amino)pyrimidine-5-carbonitrile]: the IC50 fell in the range of 0.1 to 10 nM. For `C[C@H](Nc1ncnc2[nH]cnc12)c1cc2ccc(F)cn2c(=O)c1-c1cc(F)cc(F)c1` [Compound 50, (S)-2-(1-((9H-purin-6-yl)amino)ethyl)-3-(3,5-difluorophenyl)-7-fluoro-4H-quinolizin-4-one] the value was 11 to 50 nM; for `C[C@H](Nc1nc(N)nc2[nH]cnc12)c1cc2ccc(F)cn2c(=O)c1-c1cc(F)cc(F)c1` [Compound 51, (S)-2-(1-((2-amino-9H-purin-6-yl)amino)ethyl)-3-(3,5-difluorophenyl)-7-fluoro-4H-quinolizin-4-one], 11 to 50 nM; for `C[C@H](Nc1ncnc2scnc12)c1cc2ccc(F)cn2c(=O)c1-c1ccccc1` [Compound 52, (S)-7-fluoro-3-phenyl-2-(1-(thiazolo[5,4-d]pyrimidin-7-ylamino)ethyl)-4H-quinolizin-4-one], 0.1 to 10 nM. Turning to `C[C@H](Nc1nc(N)nc(Cl)c1C#N)c1cc2ccc(F)cn2c(=O)c1-c1ccccc1` [Compound 53, (S)-2-amino-4-chloro-6-((1-(7-fluoro-4-oxo-3-phenyl-4H-quinolizin-2-yl)ethyl)amino)pyrimidine-5-carbonitrile], the IC50 was in the range of 0.1 to 10 nM. Turning to `C[C@H](Nc1ncnc2cccnc12)c1cc2ccc(F)cn2c(=O)c1-c1ccccc1` [Compound 54, (S)-7-fluoro-3-phenyl-2-(1-(pyrido[3,2-d]pyrimidin-4-ylamino)ethyl)-4H-quinolizin-4-one], the IC50 lay in the range of 0.1 to 10 nM. As to `CC(c1cc2ccc(F)cn2c(=O)c1-c1ccccc1)n1nc(-c2cc(O)cc(F)c2)c2c(N)ncnc21` (stereo not drawn) [Compound 59, 2-(1-(4-amino-3-(3-fluoro-5-hydroxyphenyl)-1H-pyrazolo[3,4-d]pyrimidin-1-yl)ethyl)-7-fluoro-3-phenyl-4H-quinolizin-4-one], the IC50 is 0.1 to 10 nM.

These data come from patent US9944639B2, “Quinolizinone derivatives as PI3K inhibitors” (Lupin Limited, priority 2014, dated 2018).
